Experiment [1] concerns Spermatozoa. Nature of the experiment: Spermicidal activity in human semen assessed as induction of spermatozoa immotility at <0.1% w/v by Sander-Cramer method. Type of experiment: functional.
Experiment [2] concerns Spermatozoa. Nature of the experiment: Spermicidal activity in human semen assessed as induction of spermatozoa immotility by Sander-Cramer method. The class given is functional.
The test system of experiment [3] is Spermatozoa. Nature of the experiment: Spermicidal activity in human semen assessed as induction of spermatozoa immotility at 0.1% w/v by Sander-Cramer method. The class given is functional, cell-based.
For experiment [4], the system named is HeLa. Nature of the experiment: Cytotoxicity against human HeLa cells. The class given is cell-based.
In experiment [5] the test system is Spermatozoa. Nature of the experiment: Inhibition of free thiols level in human semen derived spermatozoa at 1% incubated for 15 mins by monobromobimane dye based fluorescence microscopy. The class given is functional, cell-based.

The source of these data is ChEMBL document CHEMBL3351645, “Design and synthesis of γ-butyrolactone derivatives as potential spermicidal agents” (Bioorg Med Chem Lett, 2014).

Activity calls are given as the source filed them. The calls are words filed in the database; no cut-off is given here.

Consider `CCCCCCCCCc1ccc(OCCOCCOCCOCCOCCOCCOCCOCCOCCO)cc1` [NONOXYNOL 9], for which, in experiment [1], the MEC is 0.02%. As to `CC(=O)C1(CCCN(C)C)CCOC1=O` (stereo unspecified), the MEC entry in experiment [2] is “inactive”.

Regarding `CCN(CC)CCC1(C(C)=O)CCOC1=O` (stereo unspecified), the MEC result in experiment [2] is “inactive”. Take `CCN(CC)CCC1(C(=O)/C=C/c2ccc(O)c(OC)c2)CCOC1=O` (stereo unspecified): the result in experiment [3] was inactive.

On to `CC(=O)C1(CCN2CCCC2)CCOC1=O` (stereo unspecified), for which the MEC result in experiment [2] is “inactive”. On to `CN(C)c1ccc(/C=C/C(=O)C2CCOC2=O)cc1` (stereo unspecified), for which, in experiment [2], the MEC result was “inactive”. The outcome in experiment [3] was inactive. As to `COc1cc(/C=C/C(=O)C2(CCN3CCOCC3)CCOC2=O)ccc1O.O=C(O)C(O)C(O)C(=O)O` (stereo unspecified), in experiment [4], the IC50 (usually the midpoint of a concentration-inhibition curve) stood at 848 µg/mL. The MEC in experiment [2] is listed as 0.5%; in experiment [1] it was 0.1%. As to `O=C(/C=C/c1ccc(O)cc1)C1CCOC1=O` (stereo unspecified), the MEC result in experiment [2] is “inactive”. The result in experiment [3] was inactive.

With `COc1cc(/C=C/C(=O)C2(CCN3CCCC3)CCOC2=O)ccc1O` (stereo unspecified), the outcome in experiment [3] was inactive. With `CN(C)CCCC1(C(=O)/C=C/c2ccc(N(C)C)cc2)CCOC1=O.O=C(O)C(O)C(O)C(=O)O` (stereo unspecified), the midpoint of inhibition in experiment [4], the IC50, lay at 1200 µg/mL. In addition, the MEC in experiment [2] came to 0.5%; in experiment [1], 0.1%. The like results for `CN(C)c1ccc(/C=C/C(=O)C2(CCN3CCOCC3)CCOC2=O)cc1.O=C(O)C(O)C(O)C(=O)O` (stereo unspecified) were, in that order, 1330 µg/mL, 0.5% and 0.5%. As to `CC(=O)C1(CCN2CCOCC2)CCOC1=O` (stereo unspecified), the MEC entry in experiment [2] is “inactive”. Take `O=C(/C=C/c1ccc(O)cc1)C1(CCN2CCCC2)CCOC1=O` (stereo unspecified): the outcome in experiment [3] was inactive.

In the case of `CCN(CC)CCC1(C(=O)/C=C/c2ccc(O)cc2)CCOC1=O` (stereo unspecified), the result in experiment [3] was inactive.

In the case of `O=C(/C=C/c1ccc(O)cc1)C1(CCN2CCOCC2)CCOC1=O.O=C(O)C(O)C(O)C(=O)O` (stereo unspecified), half-maximal inhibition in experiment [4] (IC50) required 961 µg/mL. The MEC in experiment [2] and in experiment [1] was 0.05% each time. In addition, in experiment [5], the inhibition result is “Active”. Regarding `CN(C)CCCC1(C(=O)/C=C/c2ccc(O)cc2)CCOC1=O.O=C(O)C(O)C(O)C(=O)O` (stereo unspecified), half-maximal inhibition in experiment [4] (IC50) required 661 µg/mL. Further, the MEC in experiment [2] and in experiment [1] was 0.5% throughout. In the case of `CCN(CC)CCC1(C(=O)/C=C/c2ccc(N(C)C)cc2)CCOC1=O` (stereo unspecified), the result in experiment [3] was inactive. `COc1cc(/C=C/C(=O)C2(CCCN(C)C)CCOC2=O)ccc1O.O=C(O)C(O)C(O)C(=O)O` (stereo unspecified) came in with a concentration for half-maximal inhibition (IC50) in experiment [4] of 269 µg/mL. In addition, the MEC in experiment [2] and in experiment [1] was 0.05% each time. Besides, the inhibition entry in experiment [5] was “inactive”.

As for `CN(C)c1ccc(/C=C/C(=O)C2(CCN3CCCC3)CCOC2=O)cc1` (stereo unspecified), the result in experiment [3] was inactive. Same read-out and setting: the result for `COc1cc(/C=C/C(=O)C2CCOC2=O)ccc1O` (stereo unspecified) reads “inactive”.
